# pIC50: −log10 of the molar value.
# Tested on: 843782-103-R-J1-PDC complex spheroid viability
# Test: Anticancer human tumor 843782-103-R-J1-PDC patient-derived lung adenocarcinoma cell line growth inhibition [RAS]
# Details: for pIC50: curve of first compound; for viability, T/C: stronger effect = lower value
# From the text: RAS pathway inhibitors in Combinations in Complex Spheroids
# A high-throughput screen of multi-cell type tumor spheroids was designed to identify active combinations of RAS pathway inhibitors and targeted small molecules. Complex spheroids include a stromal component modeled by human endothelial cells (HUVEC) and fibroblasts modeled by human mesenchymal stem cells (MSCs). The concentration ranges selected for each drug and investigational agent were based upon clinically achievable concentrations if the clinical Cmax of the agent was known.
# Compounds. The drugs and investigational agents: abemaciclib (NSC768073), cobimetinib (NSC768068), divarasib (GDC6063, NSC841802), docetaxel (NSC628503), GDC-1971 (RLY-1971, NSC841576), gemcitabine (NSC613327), inavolisib (NSC800729), ipatasertib (NSC767898), KB-0742 (NSC834161), MRTX-1133 (NSC836407), osimertinib (NSC779217), RMC-4630 (NSC839698), RMC-6236 (NSC851965), RMC-6291 (NSC852671), Ro-3306 (NSC812927), sapanisertib (NSC764658), SN-38 (NSC673596), staurosporine (NSC755774), SY5609 (NSC837396), and tovorafenib (DAY101, NSC766906), were obtained from the National Cancer Institute (NCI) Developmental Therapeutics Program Chemical Repository. The FDA-approved anticancer drug set is available from the NCI Developmental Therapeutics Program. […] The stock solutions were prepared in dimethyl sulfoxide (DMSO, Sigma-Aldrich, St. Louis, MO, cat. D2650) at 800-fold the tested concentration and stored at -70 degrees C prior to their use. All drugs and investigational agents were tested over a range starting from a high concentration at or near the clinical Cmax and decreasing in half-log increments. If the clinical Cmax for an agent had not been determined, the highest concentration tested was 10 microM.
# Cell Culture. All cells were maintained in an incubator at 37 degrees C and 5% CO2 with 95% humidity. The PDC lines were cultured according to standard operating procedures established by the NCI PDMR. All PDCs were thawed and cultured in Matrigel-coated flasks prepared with a working solution of 1X Ham's F-12 nutrient mix, without supplementation (Invitrogen, Waltham, MA, cat. 11765054), 100 U/mL penicillin-streptomycin (Invitrogen, cat. 15140122), and 2.5% Matrigel (Corning Inc., Corning, NY, cat. 354248) for the first three passages. The 362531-283-R-J2-PDC and 782815-120-R-J1-PDC lines were cultured in 6C/Colon 1B media, which includes advanced DMEM/F-12 (Thermo Fisher Scientific, cat. 12634028), 10 mM HEPES (Thermo Fisher Scientific, cat. 15630080), 1X GlutaMAX supplement (Thermo Fisher Scientific, cat. 35050061), 0.1 mg/mL primocin (InvivoGen, San Diego, CA, cat. ant-pm-2), 10% defined fetal bovine serum, heat inactivated (HyClone Laboratories Inc., Logan, UT, cat. SH30070.03HI), 50% L-WRN conditioned media (ATCC, cat. CRL-3276), 1.25 mM N-Acetyl-L-cysteine (Sigma-Aldrich, cat. A9165), 10 mM nicotinamide (Sigma-Aldrich, cat. N0636), 1X B-27 supplement (Thermo Fisher Scientific, cat. 17504044), 1X N-2 supplement (Thermo Fisher Scientific, cat. 17502048), 50 ng/mL human EGF (Thermo Fisher Scientific, cat. PHG0311), and 10 microM Y-27632 dihydrochloride (Tocris Bioscience, cat. 1254). The K12877-001-R-J1-PDC line was cultured in 6I media, which includes all 6C/Colon 1B media plus 10 ng/mL human FGF-10 (PeproTech, cat. 100-26), 1 ng/mL human FGF-2 (PeproTech, cat. 100-18B), 1 µM prostaglandin E2 (Tocris Bioscience, cat. 2296), […] hydrocortisone (Sigma-Aldrich, cat. H4001), and […] bovine insulin (Sigma-Aldrich, cat. I6634). The K86415-001-R-J1-PDC line was cultured in 6D media, which includes all 6C/Colon 1B media components minus the L-WRN conditioned media. The 485176-168-R4-J1-PDC was cultured in PANC media, which includes all 6C/Colon 1B media plus 100 ng/mL human FGF-10 (PeproTech, cat. 100-26), 500 nM SB-431542 (Selleckchem, cat. S1067), and 10 nM gastrin (Tocris Bioscience, cat. 3006). […]
# [1] = second compound 0.0316 µM, first compound 0.0316 µM
# [2] = second compound 0.0316 µM, first compound 0.1 µM
# [3] = second compound 0.0316 µM, first compound 0.316 µM
# [4] = second compound 0.0316 µM, first compound 1 µM
# [5] = second compound 0.1 µM, first compound 0.0316 µM
# [6] = second compound 0.1 µM, first compound 0.1 µM
# [7] = second compound 0.1 µM, first compound 0.316 µM
# [8] = second compound 0.1 µM, first compound 1 µM
# [9] = second compound 0.316 µM, first compound 0.0316 µM
# [10] = second compound 0.316 µM, first compound 0.1 µM
# [11] = second compound 0.316 µM, first compound 0.316 µM
# [12] = second compound 0.316 µM, first compound 1 µM
# [13] = second compound 1 µM, first compound 0.0316 µM
# [14] = second compound 1 µM, first compound 0.1 µM
# [15] = second compound 1 µM, first compound 0.316 µM
# [16] = second compound 1 µM, first compound 1 µM
# 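Further: viability read after seven days of compound exposure.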
structure (smiles),measurement,setting,value
NC1c2ccccc2OC12CCN(c1cnc3c(N4CCCc5ncccc54)n[nH]c3n1)CC2 (centres undefined) + C=CC(=O)N1CCN(c2nc(OCC3CCCN3C)nc3c(F)c(-c4nc(N)cc(C)c4C(F)(F)F)c(Cl)cc23)C(C)C1,pIC50,second compound 0.00316 µM,7.31
same,pIC50,second compound 0.01 µM,> 7.50
same,pIC50,second compound 0.0316 µM,> 7.50
same,pIC50,second compound 0.1 µM,7.40
same,pIC50,second compound 0.316 µM,7.36
same,pIC50,second compound 1 µM,7.43
same,"viability, T/C","second compound 0.00316 µM, first compound 0.0316 µM",58.4%
same,"viability, T/C","second compound 0.00316 µM, first compound 0.1 µM",35.8%
same,"viability, T/C","second compound 0.00316 µM, first compound 0.316 µM",30.5%
same,"viability, T/C","second compound 0.00316 µM, first compound 1 µM",23.7%
same,"viability, T/C","second compound 0.00316 µM, first compound 3.16 µM",30.8%
same,"viability, T/C","second compound 0.00316 µM, first compound 10 µM",16.8%
same,"viability, T/C","second compound 0.01 µM, first compound 0.0316 µM",49.1%
same,"viability, T/C","second compound 0.01 µM, first compound 0.1 µM",35.5%
same,"viability, T/C","second compound 0.01 µM, first compound 0.316 µM",28.5%
same,"viability, T/C","second compound 0.01 µM, first compound 1 µM",22.8%
same,"viability, T/C","second compound 0.01 µM, first compound 3.16 µM",20.3%
same,"viability, T/C","second compound 0.01 µM, first compound 10 µM",20.2%
same,"viability, T/C",[1],44.9%
same,"viability, T/C",[2],34.4%
same,"viability, T/C",[3],30.4%
same,"viability, T/C",[4],25.6%
same,"viability, T/C","second compound 0.0316 µM, first compound 3.16 µM",24.7%
same,"viability, T/C","second compound 0.0316 µM, first compound 10 µM",21.3%
same,"viability, T/C",[5],55%
same,"viability, T/C",[6],34%
same,"viability, T/C",[7],28.2%
same,"viability, T/C",[8],26.2%
same,"viability, T/C","second compound 0.1 µM, first compound 3.16 µM",22.9%
same,"viability, T/C","second compound 0.1 µM, first compound 10 µM",15%
same,"viability, T/C",[9],54.4%
same,"viability, T/C",[10],39.8%
same,"viability, T/C",[11],29.7%
same,"viability, T/C",[12],23.1%
same,"viability, T/C","second compound 0.316 µM, first compound 3.16 µM",20.9%
same,"viability, T/C","second compound 0.316 µM, first compound 10 µM",22.1%
same,"viability, T/C",[13],52.1%
same,"viability, T/C",[14],38.3%
same,"viability, T/C",[15],25.2%
same,"viability, T/C",[16],25.4%
same,"viability, T/C","second compound 1 µM, first compound 3.16 µM",25.3%
same,"viability, T/C","second compound 1 µM, first compound 10 µM",18%
C=CC(=O)Nc1cc(Nc2nccc(-c3cn(C)c4ccccc34)n2)c(OC)cc1N(C)CCN(C)C + C#Cc1c(F)ccc2cc(O)cc(-c3ncc4c(N5CC6CCC(C5)N6)nc(OCC56CCCN5CC(F)C6)nc4c3F)c12,pIC50,second compound 0.0316 µM,< 6.00
same,pIC50,second compound 0.1 µM,< 6.00
same,pIC50,second compound 0.316 µM,< 6.00
same,pIC50,second compound 1 µM,6.23
same,pIC50,second compound 3.16 µM,6.64
same,pIC50,second compound 10 µM,7.24
same,"viability, T/C","second compound 0.0316 µM, first compound 0.00316 µM",108%
same,"viability, T/C","second compound 0.0316 µM, first compound 0.01 µM",98.2%
same,"viability, T/C",[1],101%
same,"viability, T/C",[2],96.9%
same,"viability, T/C",[3],94.6%
same,"viability, T/C",[4],55.4%
same,"viability, T/C","second compound 0.1 µM, first compound 0.00316 µM",104%
same,"viability, T/C","second compound 0.1 µM, first compound 0.01 µM",94.7%
same,"viability, T/C",[5],102%
same,"viability, T/C",[6],97%
same,"viability, T/C",[7],88.2%
same,"viability, T/C",[8],64.2%
same,"viability, T/C","second compound 0.316 µM, first compound 0.00316 µM",105%
same,"viability, T/C","second compound 0.316 µM, first compound 0.01 µM",99.4%
same,"viability, T/C",[9],101%
same,"viability, T/C",[10],93.9%
same,"viability, T/C",[11],80%
same,"viability, T/C",[12],54.4%
same,"viability, T/C","second compound 1 µM, first compound 0.00316 µM",97%
same,"viability, T/C","second compound 1 µM, first compound 0.01 µM",90.7%
same,"viability, T/C",[13],99.9%
same,"viability, T/C",[14],88.9%
same,"viability, T/C",[15],65.3%
same,"viability, T/C",[16],37.6%
same,"viability, T/C","second compound 3.16 µM, first compound 0.00316 µM",90.3%
same,"viability, T/C","second compound 3.16 µM, first compound 0.01 µM",81.6%
same,"viability, T/C","second compound 3.16 µM, first compound 0.0316 µM",88%
same,"viability, T/C","second compound 3.16 µM, first compound 0.1 µM",63.6%
same,"viability, T/C","second compound 3.16 µM, first compound 0.316 µM",46%
same,"viability, T/C","second compound 3.16 µM, first compound 1 µM",33.3%
same,"viability, T/C","second compound 10 µM, first compound 0.00316 µM",55.9%
same,"viability, T/C","second compound 10 µM, first compound 0.01 µM",54%
same,"viability, T/C","second compound 10 µM, first compound 0.0316 µM",56.5%
same,"viability, T/C","second compound 10 µM, first compound 0.1 µM",44.7%
same,"viability, T/C","second compound 10 µM, first compound 0.316 µM",33.1%
same,"viability, T/C","second compound 10 µM, first compound 1 µM",4.02%
